The results in this text go back to patent publication US20220281859A1, “HETEROCYCLIC COMPOUNDS AS KINASE INHIBITORS” (Nuvation Bio Inc., priority 2019, published 2022).

The structures appear in SMILES notation. Bounds are passed on as bounds.

One assay deals with T1, CDK4 (Homo sapiens, UniProt P11802).
T1 construct: purchased Invitrogen PR8064A
The assay is described as follows: In vitro kinase inhibition IC50, luminescence (ADP Glo) with retinoblastoma as substrate. The class given is biochemical. The settings on record: ATP 25 μM, 2H at room temperature. How it is done: (§1) IC50 values of compounds against CDK4 and CDK6 were determined by luminescence using retinoblastoma as substrate. Kinase assays were performed in kinase buffer (#PV6135, Invitrogen, Life Technologies Grand Island, N.Y.) where total reaction volume was 30 μL/well in 96-well half area white plates (#3693, Costar). One microliter of 25×test compounds at specific concentrations (e.g., final concentration range: 0.1 nM-200 nM) was mixed with 10 μL of 2.5×kinase (5 nM, CDK4 #PR8064A and CDK6 #PR8422B, Invitrogen) solution and 14 μL of 4× mixed solution with retinoblastoma (1 μM, #12-439, EMD Millipore, Hayward, Calif.) and ATP (25 μM, #V7038, Promega, Madison, Wis.). The plates were covered and incubated for 2H at room temperature. At the end of incubation, 25 μL of stop solution—ADP Glo reagent (#V7002, Promega) was added. After incubation for 45 min at room temperature, 50 μL of detection reagent (##V7002, Promega) was added. Readings were taken at 15 min and 45 min incubation after detection reagent was added in a Synergy Neo Plate reader (BioTek, Winooski, Vt.) at single excitation of 340 nm and Dual emission at 495 nm and 520 nm respectively. The following equations were used in the CDK4 and CDK6 assay data analysis. Percent inhibition (100-% activity) was fitted to the “four-parameter logistic model” in XLfit for determination of IC50 values.
(§2) Percent conversion of enzyme=100−{(RLUNo Drug−No enzyme*100)/RLUNo drug+Enzyme} Equation 1
(§3) Percent conversion at each data point=100−{(RLUAverage(Drug+enzyme)*100)/RLUNo drug+Enzyme} Equation 2
(§4) Percent Inhibition=100*(% Conversioneach data point/% ConversionEnzyme) Equation 3

In a further assay the target is T2, CDK6 (Homo sapiens, UniProt Q00534).
T2 construct: purchased Invitrogen PR8422B
T2 sequence (Q00534 whole entry): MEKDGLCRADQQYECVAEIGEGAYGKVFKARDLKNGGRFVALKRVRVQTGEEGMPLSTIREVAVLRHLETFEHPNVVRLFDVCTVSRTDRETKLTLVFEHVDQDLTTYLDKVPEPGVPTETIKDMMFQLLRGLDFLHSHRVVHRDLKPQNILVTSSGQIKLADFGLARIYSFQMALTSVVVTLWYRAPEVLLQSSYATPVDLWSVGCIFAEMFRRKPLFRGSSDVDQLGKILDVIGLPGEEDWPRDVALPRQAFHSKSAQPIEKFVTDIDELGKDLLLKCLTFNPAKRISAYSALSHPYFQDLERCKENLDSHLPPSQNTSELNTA
T2 sequence (P24385 whole entry partner): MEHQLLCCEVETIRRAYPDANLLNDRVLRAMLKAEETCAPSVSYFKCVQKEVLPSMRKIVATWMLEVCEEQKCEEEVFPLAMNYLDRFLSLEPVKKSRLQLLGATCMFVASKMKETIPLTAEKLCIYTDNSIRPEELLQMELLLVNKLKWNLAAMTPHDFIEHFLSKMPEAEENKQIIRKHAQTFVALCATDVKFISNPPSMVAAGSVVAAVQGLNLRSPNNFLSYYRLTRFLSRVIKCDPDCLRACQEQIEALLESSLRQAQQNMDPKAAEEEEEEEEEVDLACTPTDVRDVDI
The description is as above. The class given is biochemical. Conditions: ATP 25 μM, 2H at room temperature. How it is done:
as §1, §2, §3, §4

Another assay has as its target T3, CDK1 (cyclin B) (Homo sapiens, UniProt P06493).
T3 construct: purchased Invitrogen Life Technologies (assay run at the vendor)
The experiment in a line: Z'-LYTE kinase inhibition IC50. The class given is biochemical. The settings on record: ATP 34 μM, 60 minutes at room temperature. How it is done:
IC50 values of compounds against CDK1 (cyclin B) were determined by Z′-LYTE™. These screening assays were performed at Invitrogen Life Technologies (Grand Island, N.Y.) on a low volume NBS, black 384-well plate (#4514, Corning). 0.1 μL of 100× test compound in 100% DMSO (at specific solutions) was mixed with 2.4 μL of Kinase Buffer (50 mM HEPES pH 7.5, 0.01% BRIJ-35, 10 mM MgCl2, 1 mM EGTA), 5 μL of 2× Kinase (3.5-46.4 ng CDK1/cyclin B)/Peptide (2 μM Ser/Thr 18), and 2.5 μL of 4×ATP solution (34 μM). The plates were shaken for 30 seconds, and incubated for 60 minutes at room temperature. Development Reagent Solution (5 μL of 1:1024 dilution) was added to the plates followed with another 30-second plate shake, and the plates were further incubated at room temperature for one hour. The plates were read on fluorescence plate reader with Dual emission at 445 nm and 520 nm.
(§5) The following equations were used for Z′-LYTE™ Screening Assay Data Analysis. Percent inhibition (100-% activity) was fitted to the “four-parameter logistic model” in XLfit for determination of IC50 values.

For another assay, the target named is T4, CDK2 (cyclin A) (Homo sapiens, UniProt P24941).
T4 construct: purchased Invitrogen Life Technologies (assay run at the vendor)
The experiment in a line: Z'-LYTE kinase inhibition IC50. Conditions: ATP 31 μM, 60 minutes at room temperature. The class given is biochemical. How it is done: IC50 values of compounds against CDK2 (cyclin A) were determined by Z′-LYTE™. These screening assays were performed at Invitrogen Life Technologies (Grand Island, N.Y.) on a low volume NBS, black 384-well plate (#4514, Corning). 0.1 μL of 100× test compound in 100% DMSO (at specific solutions) was mixed with 2.4 μL of Kinase Buffer (50 mM HEPES pH 7.5, 0.01% BRIJ-35, 10 mM MgCl2, 1 mM EGTA), 5 μL of 2× Kinase (1.22-10.3 ng CDK2/cyclin A)/Peptide (2 μM Ser/Thr 12), and 2.5 μL of 4×ATP solution (31 μM). The plates were shaken for 30 seconds, and incubated for 60 minutes at room temperature. Development Reagent Solution (5 μL of 1:1024 dilution) was added to the plates followed with another 30-second plate shake and the plates were further incubated at room temperature for one hour. The plates were read on fluorescence plate reader with Dual emission at 445 nm and 520 nm.
as §5

The test system of another assay is DU4475. The experiment in a line: Cancer cell proliferation assay as a single agent (cell viability). The format is cell-based. The settings on record: Homo sapiens, DU-4475; DU4475 breast carcinoma, Rb Negative, 144H treatment. The method, then:
(§6) The effects of test compounds were studied in two breast cancer cell lines of different subtype. The cancer cells (Table 3) were harvested during the logarithmic growth period and counted. Cell concentrations were adjusted to the appropriate number with respective medium and 90 μL cell suspensions were added to 96-well plates. After cells were seeded, the plates were shaken gently to distribute cells evenly and incubated at 37° C., 5% CO2 on day 1.
(§7) Cells were treated with test compounds at 7 to 9 concentrations within a desired concentration range (e.g. 1.1 nM-10 μM) on day 2 by series diluting the test compound stock solution (10 mM in DMSO) with culture medium. Treatment duration was 144H (with a medium change at 72H) for both MCF-7 and DU4475 cells. Cell viability was assessed by Cell Titer-Glo® as recommended by Promega (Cat. No.: G7572), or by resazurin assay (Sigma Aldrich, Cat. No.: R7017) post treatment.
(§8) Cell viability data were plotted using GraphPad Prism (GraphPad Software, Inc., San Diego, Calif.). In addition, a nonlinear regression model with a sigmoidal dose response and variable slope within GraphPad Prism was used to calculate the IC50 value of individual test compounds.

The test system of the next assay is MCF-7. The description is as above. The class given is cell-based. The settings on record: Homo sapiens, MCF7; MCF-7 breast adenocarcinoma, Rb Positive, 144H treatment. How it is done: as §6, §7, §8

T1 sequence (P11802 whole entry): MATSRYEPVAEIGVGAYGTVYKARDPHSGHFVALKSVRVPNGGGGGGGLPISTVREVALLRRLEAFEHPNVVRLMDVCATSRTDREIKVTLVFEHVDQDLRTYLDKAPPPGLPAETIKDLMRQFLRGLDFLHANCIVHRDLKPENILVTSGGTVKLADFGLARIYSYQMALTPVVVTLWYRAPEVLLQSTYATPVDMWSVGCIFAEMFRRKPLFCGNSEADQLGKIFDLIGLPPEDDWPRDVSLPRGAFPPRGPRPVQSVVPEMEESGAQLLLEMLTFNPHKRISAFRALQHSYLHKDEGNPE
T1 sequence (P24385 whole entry partner): as the sequence (P24385 whole entry partner) above
T3 sequence (P06493 whole entry): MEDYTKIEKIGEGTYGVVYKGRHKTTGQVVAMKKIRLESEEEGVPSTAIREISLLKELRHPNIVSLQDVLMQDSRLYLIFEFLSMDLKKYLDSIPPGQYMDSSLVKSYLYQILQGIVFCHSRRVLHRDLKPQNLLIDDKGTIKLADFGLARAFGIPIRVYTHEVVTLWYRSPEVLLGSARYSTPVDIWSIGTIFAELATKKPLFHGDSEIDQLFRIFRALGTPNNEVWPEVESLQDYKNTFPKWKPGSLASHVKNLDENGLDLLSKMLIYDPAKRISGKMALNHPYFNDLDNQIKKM
T3 sequence (P14635 whole entry partner): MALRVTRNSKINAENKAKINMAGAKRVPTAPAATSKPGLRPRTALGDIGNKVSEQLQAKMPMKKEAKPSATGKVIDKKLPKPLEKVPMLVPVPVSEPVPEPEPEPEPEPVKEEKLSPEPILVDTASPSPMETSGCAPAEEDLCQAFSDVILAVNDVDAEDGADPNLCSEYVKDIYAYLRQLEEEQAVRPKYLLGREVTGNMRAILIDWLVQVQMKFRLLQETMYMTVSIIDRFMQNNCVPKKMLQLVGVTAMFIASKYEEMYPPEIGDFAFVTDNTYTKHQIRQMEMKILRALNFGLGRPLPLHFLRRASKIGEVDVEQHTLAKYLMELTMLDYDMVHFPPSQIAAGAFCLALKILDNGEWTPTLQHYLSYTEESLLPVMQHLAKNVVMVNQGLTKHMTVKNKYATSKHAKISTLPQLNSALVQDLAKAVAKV

Turning to `CC(C)N1CCOc2c(F)cc(-c3nc(Nc4ccc5[nH]nc(C6CCNCC6)c5c4)ncc3F)cc21` [Compound 59, N-(5-fluoro-4-(8-fluoro-4-isopropyl-3,4-dihydro-2H-benzo[b][1,4]oxazin-6-yl)pyrimidin-2-yl)-3-(piperidin-4-yl)-1H-indazol-5-amine], the IC50 at CDK4 was determined as 15 nM; at CDK6, 24 nM; against CDK1 (cyclin B) it was 7 nM; on CDK2 (cyclin A), 15 nM; in the assay with DU4475, 1490 nM; in the assay with MCF-7, 3440 nM.
Turning to `CC(C)N1CCOc2c(F)cc(-c3nc(Nc4nc5cc(C6=CCNCC6)ccc5s4)ncc3F)cc21` [Compound 120, N-(5-fluoro-4-(8-fluoro-4-isopropyl-3,4-dihydro-2H-benzo[b][1,4]oxazin-6-yl)pyrimidin-2-yl)-5-(1,2,3,6-tetrahydropyridin-4-yl)benzo[d]thiazol-2-amine], the IC50 at CDK4 was above 190 nM; on CDK6, above 200 nM; in the assay on DU4475 it was 130 nM; in the assay on MCF-7, 80 nM.
